# Data taken from ChEMBL document CHEMBL5724914, “Linking interpersonal differences in gut microbiota composition and drug biotransformation activity” (2024).
# Test: (§1) The drug is tested on Z-030 corresponding to mouse gut metagenome with ENA study accession number: PRJEB37062 and ENA sample accession number: ERS12561829 for biotransformation under anaerobic condition. The drug concentrations were measured over 9 timepoints collected between 0 and 24 hours of incubation by liquid-chromatography-coupled mass spectrometry (LC–MS)
# Settings: 2 µM
# Further: call rule not given here.
row,SMILES,Bacterial Biotransformation
1,CN1C[C@H](C(=O)N[C@]2(C)O[C@@]3(O)[C@@H]4CCCN4C(=O)[C@H](Cc4ccccc4)N3C2=O)C[C@@H]2c3cccc4[nH]cc(c34)C[C@H]21.CS(=O)(=O)O [DIHYDROERGOTAMINE MESYLATE],Compound NOT metabolized

# Test: as §1, with “Z-029” for “Z-030”, “rat” for “mouse”, “ERS12561828” for “ERS12561829”
# Settings: 2 µM
row,SMILES,Bacterial Biotransformation
1,CN1C[C@H](C(=O)N[C@]2(C)O[C@@]3(O)[C@@H]4CCCN4C(=O)[C@H](Cc4ccccc4)N3C2=O)C[C@@H]2c3cccc4[nH]cc(c34)C[C@H]21.CS(=O)(=O)O [DIHYDROERGOTAMINE MESYLATE],Compound NOT metabolized

# Test: as §1, with “Z-028” for “Z-030”, “ERS12561827” for “ERS12561829”
# Settings: 2 µM
row,SMILES,Bacterial Biotransformation
1,CN1C[C@H](C(=O)N[C@]2(C)O[C@@]3(O)[C@@H]4CCCN4C(=O)[C@H](Cc4ccccc4)N3C2=O)C[C@@H]2c3cccc4[nH]cc(c34)C[C@H]21.CS(=O)(=O)O [DIHYDROERGOTAMINE MESYLATE],Compound NOT metabolized

# Test: as §1, with “Z-027” for “Z-030”, “to” for “to mouse gut”, “ERS12561826” for “ERS12561829”
# Settings: 2 µM
row,SMILES,Bacterial Biotransformation
1,CN1C[C@H](C(=O)N[C@]2(C)O[C@@]3(O)[C@@H]4CCCN4C(=O)[C@H](Cc4ccccc4)N3C2=O)C[C@@H]2c3cccc4[nH]cc(c34)C[C@H]21.CS(=O)(=O)O [DIHYDROERGOTAMINE MESYLATE],Compound NOT metabolized

# Test: as §1, with “Z-026” for “Z-030”, “to” for “to mouse gut”, “ERS12561825” for “ERS12561829”
# Settings: 2 µM
row,SMILES,Bacterial Biotransformation
1,CN1C[C@H](C(=O)N[C@]2(C)O[C@@]3(O)[C@@H]4CCCN4C(=O)[C@H](Cc4ccccc4)N3C2=O)C[C@@H]2c3cccc4[nH]cc(c34)C[C@H]21.CS(=O)(=O)O [DIHYDROERGOTAMINE MESYLATE],Compound metabolized

# Test: as §1, with “Z-025” for “Z-030”, “rabbit” for “mouse”, “ERS12561824” for “ERS12561829”
# Settings: 2 µM
row,SMILES,Bacterial Biotransformation
1,CN1C[C@H](C(=O)N[C@]2(C)O[C@@]3(O)[C@@H]4CCCN4C(=O)[C@H](Cc4ccccc4)N3C2=O)C[C@@H]2c3cccc4[nH]cc(c34)C[C@H]21.CS(=O)(=O)O [DIHYDROERGOTAMINE MESYLATE],Compound metabolized

# Test: as §1, with “Z-024” for “Z-030”, “pig” for “mouse”, “ERS12561823” for “ERS12561829”
# Settings: 2 µM
row,SMILES,Bacterial Biotransformation
1,CN1C[C@H](C(=O)N[C@]2(C)O[C@@]3(O)[C@@H]4CCCN4C(=O)[C@H](Cc4ccccc4)N3C2=O)C[C@@H]2c3cccc4[nH]cc(c34)C[C@H]21.CS(=O)(=O)O [DIHYDROERGOTAMINE MESYLATE],Compound metabolized

# Test: as §1, with “Z-023” for “Z-030”, “to” for “to mouse gut”, “ERS12561822” for “ERS12561829”
# Settings: 2 µM
row,SMILES,Bacterial Biotransformation
1,CN1C[C@H](C(=O)N[C@]2(C)O[C@@]3(O)[C@@H]4CCCN4C(=O)[C@H](Cc4ccccc4)N3C2=O)C[C@@H]2c3cccc4[nH]cc(c34)C[C@H]21.CS(=O)(=O)O [DIHYDROERGOTAMINE MESYLATE],Compound metabolized

# Test: as §1, with “Z-022” for “Z-030”, “ERS12561821” for “ERS12561829”
# Settings: 2 µM
row,SMILES,Bacterial Biotransformation
1,CN1C[C@H](C(=O)N[C@]2(C)O[C@@]3(O)[C@@H]4CCCN4C(=O)[C@H](Cc4ccccc4)N3C2=O)C[C@@H]2c3cccc4[nH]cc(c34)C[C@H]21.CS(=O)(=O)O [DIHYDROERGOTAMINE MESYLATE],Compound metabolized

# Test: as §1, with “Z-021” for “Z-030”, “to” for “to mouse gut”, “ERS12561820” for “ERS12561829”
# Settings: 2 µM
row,SMILES,Bacterial Biotransformation
1,CN1C[C@H](C(=O)N[C@]2(C)O[C@@]3(O)[C@@H]4CCCN4C(=O)[C@H](Cc4ccccc4)N3C2=O)C[C@@H]2c3cccc4[nH]cc(c34)C[C@H]21.CS(=O)(=O)O [DIHYDROERGOTAMINE MESYLATE],Compound NOT metabolized

# Test: as §1, with “Z-020” for “Z-030”, “rabbit” for “mouse”, “ERS12561819” for “ERS12561829”
# Settings: 2 µM
row,SMILES,Bacterial Biotransformation
1,CN1C[C@H](C(=O)N[C@]2(C)O[C@@]3(O)[C@@H]4CCCN4C(=O)[C@H](Cc4ccccc4)N3C2=O)C[C@@H]2c3cccc4[nH]cc(c34)C[C@H]21.CS(=O)(=O)O [DIHYDROERGOTAMINE MESYLATE],Compound NOT metabolized

# Test: as §1, with “Z-019” for “Z-030”, “rat” for “mouse”, “ERS12561818” for “ERS12561829”
# Settings: 2 µM
row,SMILES,Bacterial Biotransformation
1,CN1C[C@H](C(=O)N[C@]2(C)O[C@@]3(O)[C@@H]4CCCN4C(=O)[C@H](Cc4ccccc4)N3C2=O)C[C@@H]2c3cccc4[nH]cc(c34)C[C@H]21.CS(=O)(=O)O [DIHYDROERGOTAMINE MESYLATE],Compound NOT metabolized

# Test: as §1, with “Z-018” for “Z-030”, “pig” for “mouse”, “ERS12561817” for “ERS12561829”
# Settings: 2 µM
row,SMILES,Bacterial Biotransformation
1,CN1C[C@H](C(=O)N[C@]2(C)O[C@@]3(O)[C@@H]4CCCN4C(=O)[C@H](Cc4ccccc4)N3C2=O)C[C@@H]2c3cccc4[nH]cc(c34)C[C@H]21.CS(=O)(=O)O [DIHYDROERGOTAMINE MESYLATE],Compound NOT metabolized

# Test: as §1, with “Z-017” for “Z-030”, “ERS12561816” for “ERS12561829”
# Settings: 2 µM
row,SMILES,Bacterial Biotransformation
1,CN1C[C@H](C(=O)N[C@]2(C)O[C@@]3(O)[C@@H]4CCCN4C(=O)[C@H](Cc4ccccc4)N3C2=O)C[C@@H]2c3cccc4[nH]cc(c34)C[C@H]21.CS(=O)(=O)O [DIHYDROERGOTAMINE MESYLATE],Compound NOT metabolized

# Test: as §1, with “Z-016” for “Z-030”, “ERS12561815” for “ERS12561829”
# Settings: 2 µM
row,SMILES,Bacterial Biotransformation
1,CN1C[C@H](C(=O)N[C@]2(C)O[C@@]3(O)[C@@H]4CCCN4C(=O)[C@H](Cc4ccccc4)N3C2=O)C[C@@H]2c3cccc4[nH]cc(c34)C[C@H]21.CS(=O)(=O)O [DIHYDROERGOTAMINE MESYLATE],Compound NOT metabolized

# Test: as §1, with “Z-014” for “Z-030”, “rat” for “mouse”, “ERS12561814” for “ERS12561829”
# Settings: 2 µM
row,SMILES,Bacterial Biotransformation
1,CN1C[C@H](C(=O)N[C@]2(C)O[C@@]3(O)[C@@H]4CCCN4C(=O)[C@H](Cc4ccccc4)N3C2=O)C[C@@H]2c3cccc4[nH]cc(c34)C[C@H]21.CS(=O)(=O)O [DIHYDROERGOTAMINE MESYLATE],Compound NOT metabolized

# Test: as §1, with “Z-013” for “Z-030”, “rabbit” for “mouse”, “ERS12561813” for “ERS12561829”
# Settings: 2 µM
row,SMILES,Bacterial Biotransformation
1,CN1C[C@H](C(=O)N[C@]2(C)O[C@@]3(O)[C@@H]4CCCN4C(=O)[C@H](Cc4ccccc4)N3C2=O)C[C@@H]2c3cccc4[nH]cc(c34)C[C@H]21.CS(=O)(=O)O [DIHYDROERGOTAMINE MESYLATE],Compound NOT metabolized

# Test: as §1, with “Z-012” for “Z-030”, “to” for “to mouse gut”, “ERS12561812” for “ERS12561829”
# Settings: 2 µM
row,SMILES,Bacterial Biotransformation
1,CN1C[C@H](C(=O)N[C@]2(C)O[C@@]3(O)[C@@H]4CCCN4C(=O)[C@H](Cc4ccccc4)N3C2=O)C[C@@H]2c3cccc4[nH]cc(c34)C[C@H]21.CS(=O)(=O)O [DIHYDROERGOTAMINE MESYLATE],Compound NOT metabolized

# Test: as §1, with “Z-011” for “Z-030”, “ERS12561811” for “ERS12561829”
# Settings: 2 µM
row,SMILES,Bacterial Biotransformation
1,CN1C[C@H](C(=O)N[C@]2(C)O[C@@]3(O)[C@@H]4CCCN4C(=O)[C@H](Cc4ccccc4)N3C2=O)C[C@@H]2c3cccc4[nH]cc(c34)C[C@H]21.CS(=O)(=O)O [DIHYDROERGOTAMINE MESYLATE],Compound NOT metabolized

# Test: as §1, with “Z-010” for “Z-030”, “to” for “to mouse gut”, “ERS12561810” for “ERS12561829”
# Settings: 2 µM
row,SMILES,Bacterial Biotransformation
1,CN1C[C@H](C(=O)N[C@]2(C)O[C@@]3(O)[C@@H]4CCCN4C(=O)[C@H](Cc4ccccc4)N3C2=O)C[C@@H]2c3cccc4[nH]cc(c34)C[C@H]21.CS(=O)(=O)O [DIHYDROERGOTAMINE MESYLATE],Compound NOT metabolized

# Test: as §1, with “Z-009” for “Z-030”, “pig” for “mouse”, “ERS12561809” for “ERS12561829”
# Settings: 2 µM
row,SMILES,Bacterial Biotransformation
1,CN1C[C@H](C(=O)N[C@]2(C)O[C@@]3(O)[C@@H]4CCCN4C(=O)[C@H](Cc4ccccc4)N3C2=O)C[C@@H]2c3cccc4[nH]cc(c34)C[C@H]21.CS(=O)(=O)O [DIHYDROERGOTAMINE MESYLATE],Compound NOT metabolized

# Test: as §1, with “Z-008” for “Z-030”, “to” for “to mouse gut”, “ERS12561808” for “ERS12561829”
# Settings: 2 µM
row,SMILES,Bacterial Biotransformation
1,CN1C[C@H](C(=O)N[C@]2(C)O[C@@]3(O)[C@@H]4CCCN4C(=O)[C@H](Cc4ccccc4)N3C2=O)C[C@@H]2c3cccc4[nH]cc(c34)C[C@H]21.CS(=O)(=O)O [DIHYDROERGOTAMINE MESYLATE],Compound NOT metabolized

# Test: as §1, with “Z-007” for “Z-030”, “rat” for “mouse”, “ERS12561807” for “ERS12561829”
# Settings: 2 µM
row,SMILES,Bacterial Biotransformation
1,CN1C[C@H](C(=O)N[C@]2(C)O[C@@]3(O)[C@@H]4CCCN4C(=O)[C@H](Cc4ccccc4)N3C2=O)C[C@@H]2c3cccc4[nH]cc(c34)C[C@H]21.CS(=O)(=O)O [DIHYDROERGOTAMINE MESYLATE],Compound NOT metabolized

# Test: as §1, with “Z-006” for “Z-030”, “ERS12561806” for “ERS12561829”
# Settings: 2 µM
row,SMILES,Bacterial Biotransformation
1,CN1C[C@H](C(=O)N[C@]2(C)O[C@@]3(O)[C@@H]4CCCN4C(=O)[C@H](Cc4ccccc4)N3C2=O)C[C@@H]2c3cccc4[nH]cc(c34)C[C@H]21.CS(=O)(=O)O [DIHYDROERGOTAMINE MESYLATE],Compound NOT metabolized

# Test: as §1, with “Z-005” for “Z-030”, “to” for “to mouse gut”, “ERS12561805” for “ERS12561829”
# Settings: 2 µM
row,SMILES,Bacterial Biotransformation
1,CN1C[C@H](C(=O)N[C@]2(C)O[C@@]3(O)[C@@H]4CCCN4C(=O)[C@H](Cc4ccccc4)N3C2=O)C[C@@H]2c3cccc4[nH]cc(c34)C[C@H]21.CS(=O)(=O)O [DIHYDROERGOTAMINE MESYLATE],Compound NOT metabolized

# Test: as §1, with “Z-004” for “Z-030”, “to” for “to mouse gut”, “ERS12561804” for “ERS12561829”
# Settings: 2 µM
row,SMILES,Bacterial Biotransformation
1,CN1C[C@H](C(=O)N[C@]2(C)O[C@@]3(O)[C@@H]4CCCN4C(=O)[C@H](Cc4ccccc4)N3C2=O)C[C@@H]2c3cccc4[nH]cc(c34)C[C@H]21.CS(=O)(=O)O [DIHYDROERGOTAMINE MESYLATE],Compound NOT metabolized

# Test: as §1, with “Z-003” for “Z-030”, “pig” for “mouse”, “ERS12561803” for “ERS12561829”
# Settings: 2 µM
row,SMILES,Bacterial Biotransformation
1,CN1C[C@H](C(=O)N[C@]2(C)O[C@@]3(O)[C@@H]4CCCN4C(=O)[C@H](Cc4ccccc4)N3C2=O)C[C@@H]2c3cccc4[nH]cc(c34)C[C@H]21.CS(=O)(=O)O [DIHYDROERGOTAMINE MESYLATE],Compound NOT metabolized

# Test: as §1, with “Z-002” for “Z-030”, “rabbit” for “mouse”, “ERS12561802” for “ERS12561829”
# Settings: 2 µM
row,SMILES,Bacterial Biotransformation
1,CN1C[C@H](C(=O)N[C@]2(C)O[C@@]3(O)[C@@H]4CCCN4C(=O)[C@H](Cc4ccccc4)N3C2=O)C[C@@H]2c3cccc4[nH]cc(c34)C[C@H]21.CS(=O)(=O)O [DIHYDROERGOTAMINE MESYLATE],Compound metabolized

# Test: as §1, with “Z-001” for “Z-030”, “ERS12561801” for “ERS12561829”
# Settings: 2 µM
row,SMILES,Bacterial Biotransformation
1,CN1C[C@H](C(=O)N[C@]2(C)O[C@@]3(O)[C@@H]4CCCN4C(=O)[C@H](Cc4ccccc4)N3C2=O)C[C@@H]2c3cccc4[nH]cc(c34)C[C@H]21.CS(=O)(=O)O [DIHYDROERGOTAMINE MESYLATE],Compound NOT metabolized
